Assays:
[1] = test system: double-stranded DNA oligonucleotide; assay: DNA binding by ESI-MS; design: key: MetalDepend.: all ligand-DNA complex ions also contained a metal ion.; None: no ligand-DNA complex ions observed.; MetalIndepend.: ligand-DNA and ligand-DNA-metal ion complex ions observed; settings: ligand-DNA complex ions, presence or absence of added NiCl2
[2] = test system: IMR-32 neuroblastoma cell line; assay: alamarBlue cytotoxicity assay, IMR-32; assay type: cell-based; settings: Homo sapiens
Description: (§1) Cytotoxicity Assays. Cell culture cytotoxicity assays were performed using the. alamarBlue method, as described by Ahmed et al., J. Immun. Methods 1994, 170, 211-224, which is incorporated herein by reference. Briefly, aliquots of 100 μL of cell suspension (1.0-2.5×10^3 cells) was placed in 96-well microtiter plates in an atmosphere of 5% CO2 at 37° C. After 24 hours, 100 μL of culture medium and 2 μL of compound in vehicle (culture media with 40% pyridine) or vehicle alone were added, and the plates incubated an additional 72 hours. The final pyridine concentration in all cases was 0.4%; at this pyridine concentration there was no affect on the growth of cells compared to cells in culture media without added pyridine. […] After the culture media had been removed from each well, 200 μL of fresh media and 20 μL of 90% alamarBlue reagent were added, followed by an additional 6 h incubation. The fluorescent intensity was measured using a Spectrafluor Plus plate reader with excitation at 530 nm and emission at 590 nm. Results are reported as IC50 values, the average concentration required to produce a decrease of fluorescent intensity of 50% relative to vehicle-treated controls in two separate determinations.

SK-N-MC = assay: alamarBlue cytotoxicity assay, SK-N-MC; assay type: cell-based; settings: Homo sapiens
Description: as §1

[3] = alamarBlue cytotoxicity, range over three cell lines; assay type: cell-based; settings: human; range of concentrations required to inhibit growth of MCF-7, HT-29, and PC-3 cells by 50%
Description: as §1

[4] = Metal ion binding by continuous variation, Mg2+; settings: Mg^2+, methanol, 1:1 complex
Description: (§2) Previous work indicated the metal ion binding mechanism of UK-1, so the method of continuous variation was used to determine the ability of selected UK-1analogues to bind a variety of metal ions. Methanolic solutions of UK-1 or UK-1 analogues and metal ion salts [Ca(NO3)2, Mg(NO3)2, Zn(NO3)2, or Fe(NO3)3] at various molar ratios, and 20 μM combined total concentration, were prepared and the absorbance at 418 nm was determined. […] Compound 2.1 does bind with Ca^2+ and Zn^2+ better than UK-1.
(§3) Continuous variation plots. A 100 μM solution of UK-1 or analogue and 100 AM solutions of Ca(NO3)2, Mg(NO3)2, Zn(NO3)2, or Fe(NO3)3 were prepared in methanol. From these stock solutions, 15 samples (1 mL) of varying mole fraction of the metal ion were prepared at a constant, combined concentration of 20 μM for the ligand and the metal ion. The change in absorbance was monitored from 500 to 200 nm for each sample using as a reference a 1 mL solution containing the same concentration of ligand as the sample being measured but without the metal ion. The maximum absorbance change was typically around 418 nm but varied somewhat for each metal ion. The absorbance at 418 nm was plotted as a function of the mole fraction of the metal ion and the maximum absorbance change was determined. The absorbance of a sample containing the metal ion concentration corresponding to this maximum change and a 15 fold excess of metal ion at this ligand concentration, subtracted from a reference containing the same concentration of ligand but no metal ion was used to normalize the curve and obtain the conditional formation constant as described in the paper to Likussar, W.; Boltz, D. F. Anal. Chem. 1971, 43, 1265-1272, which is incorporated herein by reference.

SK-N-SH = assay: alamarBlue cytotoxicity assay, SK-N-SH; assay type: cell-based; settings: Homo sapiens
Description: as §1

[5] = Metal ion binding by continuous variation, Ca2+; settings: Ca^2+, methanol, 1:1 complex
Description: as §2, §3

[6] = test system: methicillin-resistant S. aureus ATCC 43300; assay: Antimicrobial bioassay, methicillin-resistant S. aureus; assay type: cell-based, Staphylococcus aureus
Description: Antimicrobial Bioassay: Staphylococcus aureus ATCC 29213 and methicillin-resistant S. aureus ATCC 43300 (MRS) were obtained from the American Type Culture Collection (Rockville, Md.) and stored on agar slants at 4° C. until needed. Susceptibility testing was performed using a modified version of the NCCLS methods: “Methods for Dilution Antimicrobial Susceptibility Tests for Bacteria that Grow Aerobically,” M7-A4, Vol. 17, No. 2, NCCLS, (1997) and “Reference Method for Broth Dilution Antifungal Susceptibility Testing of Yeasts; Approved Standard,” M27-A, Vol. 17, No. 9, NCCLS, (1997), both of which are incorporated herein by reference. Microorganisms were subcultured prior to the assay by suspending cells from the slant in Eugon broth (BBL, Maryland) and incubating for 24 hours at 37° C. Inocula were prepared by diluting the subcultured organism in its incubation broth after comparison to the 0.5 McFarland Standard (a BaSO4 suspension) to afford final inocula ranges of S. aureus: 1.0-5.0×10^5 and MRS: 0.2-6.0×10^5 CFU/ml. Test compounds were dissolved in DMSO, serially-diluted using normal saline, and transferred in duplicate to 96 well flat-bottomed microtiter plates. The microbial inocula were added to the samples to achieve a final volume of 200 μl and final compound concentrations starting with 50 μg/ml. Drug [Ciprofloxacin (ICN Biomedicals, Ohio)] as well as growth and blank (media only) controls were added to each test plate. Plates were read at 630 nm using the EL-340 Biokinetics Reader (Bio-Tek Instruments, Vermont) prior to and after incubation at 37° C. for 24 hours. Percent growth was calculated and plotted versus concentration to afford the IC50, or sample concentration that affords 50% growth of the organism relative to controls.

PC-3 cells = assay: alamarBlue cytotoxicity assay, PC-3; assay type: cell-based, human; settings: PC-3, alamarBlue
Description: as §1

[7] = Metal ion binding by continuous variation, Fe3+; settings: Fe^3+, methanol, 1:1 complex
Description: as §2, §3

DU145 = assay: alamarBlue cytotoxicity assay, DU145; assay type: cell-based; settings: Homo sapiens, DU-145
Description: as §1

SMILES: COC(=O)c1cccc2oc(-c3cccc4oc(-c5ccccc5O)nc34)nc12 [UK-1]
- DNA-Binding ESI-MS [1]: MetalDepend.^d
- IC50 ([2]; IMR-32, IMR-32, alamarBlue): 60 nM
- IC50 ([2]; IMR-32, IMR-32, bound stated in text): < 100 nM
- IC50 (SK-N-MC): 1100 nM
- IC50 at 72 h [3]: 320 to 65000 nM
- Association constant for metal ion binding [4]: 2e+06 M⁻¹
- IC50 (SK-N-SH): 7000 nM
- Association constant for metal ion binding [5]: 40000 M⁻¹
- IC50 ([6]; Staphylococcus aureus, ATCC43300, Methacilline-resistant Staph. Aureus, growth inhibited by 50%, read-out: Staph. aureus IC50): > 50 µg/mL
- antibacterial effect ([6]; methicillin-resistant S. aureus, concentrations up to 50 μg/mL): no indication of any antibacterial effect
- IC50 (PC-3 cells; Homo sapiens, PC-3, 72 h): 400 nM
- IC50 (PC-3 cells; 72 h): 320 nM
- Association constant for metal ion binding [7]: 250000 M⁻¹
- IC50 (DU145): 200 nM

From patent US7294643B2, “UK-1 analogues: methods of preparation and use” (Board of Regents, The University of Texas System, priority 2002, dated 2007)
